Earlier results, collected in patent publication US20070207452A1, “Method of detecting micronucleus in cell” (Olympus Corporation, priority 2004, published 2007).

System: bacteria
Details: background statement; carcinogenic substances detected by the chromosomal aberration test

**Q.** With `CC/C(=C(/CC)c1ccc(O)cc1)c1ccc(O)cc1` [diethylstilbestrol] as the compound, how does the “result in the reverse mutation test” value read?
**A.** Its value is “negative”.

**Q.** With `c1ccccc1` [benzene] as the compound, how does the “result in the reverse mutation test” value read?
**A.** The value was “negative”.
